US7541457B2, “Amphiphilic trisulfonated porphyrazines for photodynamic applications in medicine” (Universite de Sherbrooke, priority 2003, dated 2009)

How the values were obtained:
[1] = test system: EMT-6 murine mammary tumor cells; assay: Phototoxicity (cellular photoinactivation, MTT) against EMT-6 tumor cells in vitro; format: cell-based; details: for LD90 (light dose for 90% cell kill): dye 1 μM, red light 660-700 nm
[2] = test system: EMT-6 mammary tumours; assay: PDT of EMT-6 mammary tumors in BALB/c mice; format: in vivo
Procedure: All experiments were performed on male BALB/c mice (18-22g) (Charles River Breeding Laboratories, Montreal, Quebec, Canada) bearing two EMT-6 mammary tumours. The experiments were conducted following a protocol approved by the Canadian Council on Animal Care and the in-house ethics committee. Animals were allowed free access to water and food throughout the experiments. Before tumour implantation, hair on the hind legs and the backs of the mice was removed by shaving and chemical depilating (Nair, Whitehall, Mississauga, Canada). The two tumors were implanted on the backs of the animals by intradermal injection of 2-3×10^5 EMT-6 cells suspended in 0.05 ml Waymouth's growth medium.
For PDT tumor response studies, mice were used 7-10 d after tumor cell inoculation (mean external tumor size 4.5-6.0 mm diameter and approximately 2.5 mm thickness). The mice were given an intravenous administration of […] of porphyrazine dye in PBS (0.2 mL/20 g) through the tail vein. […] Mice were examined daily for 20 days following PDT in order to assess tumor response (necrosis) and recurrence.
At the highest dye dose over 50% of the animals responded with complete tumor regression as observed 3 weeks after treatment.

[3] = test system: plasma extravasation in STZ-diabetic rat retinal vessels; assay: PDT of plasma extravasation (Evans Blue) in STZ-diabetic rat retina; format: in vivo, Wistar rats; details: for Inhibition of plasma extravasation: 0.5 μmole/kg
Procedure: (§1) The long established Evans Blue technique was used to measure plasma extravasation. Under anesthesia with a 10 mg/kg mixture of Ketamine and Xylazine, 250 g male wistar rats were injected with 45 mg/kg Evans Blue through a canula placed in the jugular vein. Ten minutes later, the experimental procedure was started. At the end of experiments, the animals were sacrificed and their eyes were enucleated. Both eyes combined were placed into 300 μl of formamide and incubated at 70° C. for 18 hours. Following incubation the supernatant absorbance at 620 nm was read with a spectrophotometer. A standard curve was used to determine the concentration of Evans Blue, which was expressed in μg/ml.
After an overnight fast, diabetes was induced with a single 65 mg/kg intraperitoneal injection of streptozotocin (STZ) in 10 mM citrate buffer, pH 4.5. Animals that served as non diabetic controls received an equivalent amount of citrate buffer alone. One week later, just prior to experimentation, blood glucose levels were measured to determine diabetic status. Only rats with blood glucose higher than 20 mM were deemed STZ-diabetic.
Conscious rats were injected with the photosensitizing drug through the tail vein six hours prior to irradiation with red light onto the retina. […] Subsequently the eyes were enucleated and tested for Evan's Blue levels.

[4] = test system: Vascular Endothelial Growth Factor evoked plasma extravasation; assay: PDT of VEGF-165 evoked plasma extravasation (Evans Blue) in rat retina; format: in vivo, Wistar rats
Procedure: as §1
Rats anesthetized with a mixture of Ketamine and Zylazine (10 mg/kg) were injected with 2 μl of VEGF-165 prepared in saline, directly into the vitreous, using a Hamilton micro syringe. A period of 10 min was allotted for the plasma extravasation response to occur. After the response to VEGF-165 developed, the eyes were enucleated and subjected to spectrophotometric analysis for Evan's Blue.
[…] […] Subsequently the eyes were enucleated and tested for Evan's Blue levels.

[5] = test system: EMT-6 mammary tumours; assay: PDT of EMT-6 mammary tumors in BALB/c mice; format: in vivo; details: for Necrosis (flat and necrotic tissue within 2 days post-PDT): light 24 h later, 670 nm, 400 J/cm^2

Substance | LD90 (light dose for 90% cell kill) ([1]; 6 h incubation) [J · cm^−2] | LD90 (light dose for 90% cell kill) ([1]; 24 h incubation) [J · cm^−2] | Relative phototoxicity within the alkylyl series ([1]; compounds 45-49, 6 h and 24 h incubation) | Tumor response (flattening and necrosis) within 48 h after PDT ([2]; all dye doses used, 0.5-1 μmole/kg) | Mortality ([2]; any of the dye and light doses used) | Mortality ([2]; dye dose 1 μmole/kg) [%] | Necrosis (flat and necrotic tissue within 2 days post-PDT) ([2]; dye dose 1 μmole/kg i.v., light 24 h later, 670 nm, 400 J/cm^2) [%] | Inhibition of plasma extravasation ([3]; light 6 h after drug, 45 J/cm2, total fluence 3 J) | Plasma extravasation after PDT ([3]; STZ-diabetic rats, interval drug to light extended from 1 hour up to 6 hours) | Relative potency as inhibitor of plasma extravasation ([3]; among the five molecules tested, light 6 h after drug) | Inhibition of plasma extravasation ([3]; diabetic rats, red light 680 nm, 25 mW/cm^2, 20 J/cm^2) | Inhibition of plasma extravasation ([4]; VEGF-165 injected rats, 0.5 μmole/kg, red light 680 nm, 25 mW/cm^2, 20 J/cm^2) | Plasma extravasation after PDT ([4]; VEGF-165 treated STZ-diabetic rats, 5 hour interval between photosensitizer administration and light) | Cure (absence of a palpable tumor 3 weeks post-PDT) ([5]; dye dose 0.5 μmole/kg) [%] | Mortality ([5]; dye dose 0.5 μmole/kg) [%] | Necrosis (flat and necrotic tissue within 2 days post-PDT) ([5]; dye dose 0.5 μmole/kg i.v.) [%] | Cure (absence of a palpable tumor 3 weeks post-PDT) ([5]; dye dose 0.75 μmole/kg) [%] | Mortality ([5]; dye dose 0.75 μmole/kg) [%] | Necrosis (flat and necrotic tissue within 2 days post-PDT) ([5]; dye dose 0.75 μmole/kg i.v.) [%]
Zinc tri-(4-sulfobenzo)-5-mono-[(1-hexynyl)naphtho]-porphyrazine [Compound 46] | 4.1 | 1.2 | highest phototoxicity | All treated tumors responded | No mortality occurred | 0 | 100 | completely inhibited plasma extravasation | reduced plasma extravasation to the level of control non-diabetic rats | most potent inhibitor of plasma extravasation | completely inhibited plasma extravasation to control levels | completely inhibited plasma extravasation to control levels | reach control levels | 0 | 0 | 100 | 20 | 0 | 100
zinc trisulfophthalocyanine [ZnPcS3, reference compound] | 5.9 | 2.2 | – | – | – | – | – | – | – | – | – | – | – | – | – | – | – | – | –
